Assays:
Assay in all cases: relative viability (nuclei count vs DMSO), 5 days (fraction); higher = more cells survive
Dovitinib + Navitoclax = compound: CN1CCN(c2ccc3nc(-c4c(N)c5c(F)cccc5[nH]c4=O)[nH]c3c2)CC1 [Dovitinib] + CC1(C)CCC(c2ccc(Cl)cc2)=C(CN2CCN(c3ccc(C(=O)NS(=O)(=O)c4ccc(N[C@H](CCN5CCOCC5)CSc5ccccc5)c(S(=O)(=O)C(F)(F)F)c4)cc3)CC2)C1 [Navitoclax] (partner 0.5 µM)
How it was run: (§1)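 A single step with final 0.05% Triton X-100, 1% formaldehyde and 1 ug/ml Hoechst fixed the cells and stained nuclei 5 days after treatment. Lung cancer cell lines in 1536-well plates had been treated by pin tool the day after seeding with one drug alone or a fixed anchor-drug dose plus five library-drug doses (not always all listed) in √10 steps, and nuclei were counted on 4× images. Relative viability is the ratio of nuclei in treated wells to nuclei in vehicle wells, taken as the median of duplicate plates.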

Dovitinib + Tozasertib = compound: CN1CCN(c2ccc3nc(-c4c(N)c5c(F)cccc5[nH]c4=O)[nH]c3c2)CC1 [Dovitinib] + Cc1cc(Nc2cc(N3CCN(C)CC3)nc(Sc3ccc(NC(=O)C4CC4)cc3)n2)n[nH]1 [Tozasertib] (partner 0.1 µM)
How it was run: as §1

Dovitinib + Vorinostat = compound: CN1CCN(c2ccc3nc(-c4c(N)c5c(F)cccc5[nH]c4=O)[nH]c3c2)CC1 [Dovitinib] + O=C(CCCCCCC(=O)Nc1ccccc1)NO [Vorinostat] (partner 1 µM)
How it was run: as §1

Dovitinib + Crizotinib = compound: CN1CCN(c2ccc3nc(-c4c(N)c5c(F)cccc5[nH]c4=O)[nH]c3c2)CC1 [Dovitinib] + C[C@@H](Oc1cc(-c2cnn(C3CCNCC3)c2)cnc1N)c1c(Cl)ccc(F)c1Cl [Crizotinib] (partner 1 µM)
How it was run: as §1

Row | Cell Line | relative viability (Dovitinib + Navitoclax; first compound 0.02 µM) | relative viability (Dovitinib + Navitoclax; first compound 0.06325 µM) | relative viability (Dovitinib + Navitoclax; first compound 0.2 µM) | relative viability (Dovitinib + Navitoclax; first compound 0.6325 µM) | relative viability (Dovitinib + Navitoclax; first compound 2 µM) | relative viability (Dovitinib + Tozasertib; first compound 0.02 µM) | relative viability (Dovitinib + Tozasertib; first compound 0.06325 µM) | relative viability (Dovitinib + Tozasertib; first compound 0.2 µM) | relative viability (Dovitinib + Tozasertib; first compound 0.6325 µM) | relative viability (Dovitinib + Tozasertib; first compound 2 µM) | relative viability (Dovitinib + Vorinostat; first compound 0.02 µM) | relative viability (Dovitinib + Vorinostat; first compound 0.06325 µM) | relative viability (Dovitinib + Vorinostat; first compound 0.2 µM) | relative viability (Dovitinib + Vorinostat; first compound 0.6325 µM) | relative viability (Dovitinib + Vorinostat; first compound 2 µM) | relative viability (Dovitinib + Crizotinib; first compound 0.02 µM) | relative viability (Dovitinib + Crizotinib; first compound 0.06325 µM) | relative viability (Dovitinib + Crizotinib; first compound 0.2 µM) | relative viability (Dovitinib + Crizotinib; first compound 0.6325 µM) | relative viability (Dovitinib + Crizotinib; first compound 2 µM)
1 | NCI-H1734 | 0.876 | 0.826 | 0.849 | 0.851 | 0.822 | 0.287 | 0.279 | 0.264 | 0.223 | 0.288 | 0.832 | 0.773 | 0.784 | 0.785 | 0.875 | 0.635 | 0.664 | 0.637 | 0.598 | 0.643
2 | NCI-H2228 | 0.897 | 1.16 | 0.833 | 0.908 | 0.885 | 0.249 | 0.281 | 0.207 | 0.216 | 0.265 | 0.559 | 0.81 | 0.402 | 0.79 | 0.6 | 0.399 | 0.379 | 0.436 | 0.454 | 0.367
3 | COR-L23 | 0.962 | 1.19 | 1.02 | 1.05 | 1.07 | 0.207 | 0.191 | 0.194 | 0.172 | 0.215 | 0.431 | 0.505 | 0.551 | 0.379 | 0.462 | 0.655 | 0.526 | 0.638 | 0.55 | 0.756
4 | NCI-H1993 | 1.07 | 0.963 | 0.965 | 1.02 | 0.934 | 0.58 | 0.546 | 0.601 | 0.636 | 0.582 | 0.929 | 0.754 | 0.823 | 0.76 | 0.943 | 0.917 | 0.818 | 0.811 | 1.04 | 0.942
5 | NCI-H1437 | 1.01 | 1.05 | 1.05 | 1.05 | 1.07 | 0.418 | 0.392 | 0.435 | 0.392 | 0.419 | 0.884 | 0.847 | 0.9 | 0.803 | 0.745 | 0.867 | 0.947 | 0.781 | 0.929 | 0.868
6 | UMC-11 | 0.364 | 0.308 | 0.373 | 0.297 | 0.318 | 0.213 | 0.201 | 0.203 | 0.199 | 0.22 | 0.449 | 0.422 | 0.478 | 0.383 | 0.431 | 0.636 | 0.716 | 0.576 | 0.514 | 0.733
7 | 201T | 1.12 | 1.21 |  | 1.22 | 1.21 | 0.917 | 0.967 | 0.975 | 0.946 | 0.873 | 0.862 | 0.957 | 0.908 | 0.947 | 0.949 | 1.03 | 0.935 |  | 0.992 | 1.01
8 | ChaGo-K-1 | 1.01 | 0.976 | 0.975 | 1.14 | 1.18 | 0.233 | 0.215 | 0.241 | 0.227 | 0.208 | 0.739 | 0.814 | 0.758 | 0.766 | 0.706 | 1.03 | 1.08 | 1.09 | 1.11 | 1.15
9 | NCI-H1650 | 1.12 | 1.2 | 1.25 | 1.05 | 1.08 | 0.394 | 0.349 | 0.424 | 0.325 | 0.361 | 0.569 | 0.432 | 0.785 | 0.703 | 0.554 | 0.945 | 1.02 | 1.06 | 1.14 | 1.02
10 | LOU-NH91 | 0.687 | 0.72 | 0.684 | 0.7 | 0.804 | 0.708 | 0.659 | 0.611 | 0.678 | 0.776 | 0.961 | 0.846 | 0.919 | 0.984 | 0.94 | 0.767 | 0.75 | 0.729 | 0.74 | 0.798
11 | HOP-62 | 0.95 | 0.995 | 1.01 | 1.1 | 1.08 | 0.316 | 0.401 | 0.346 | 0.384 | 0.424 | 0.469 | 0.469 | 0.588 | 0.667 | 0.797 | 0.861 | 0.923 | 1.15 | 0.943 | 1.01
12 | NCI-H1915 | 0.797 | 0.749 | 0.767 | 0.752 | 0.801 | 0.435 | 0.445 | 0.46 | 0.451 | 0.453 | 0.469 | 0.502 | 0.531 | 0.499 | 0.531 | 0.854 | 0.886 | 0.838 | 0.922 | 0.841
13 | NCI-H3122 | 1.05 | 1.03 | 0.954 | 1.02 | 1.07 | 0.37 | 0.368 | 0.488 | 0.406 | 0.415 | 0.823 | 0.91 | 1.07 | 0.951 | 1.08 | 0.294 | 0.27 | 0.287 | 0.284 | 0.263
14 | NCI-H1651 | 1.09 | 1.04 | 1.03 | 1.02 | 1.03 | 0.61 | 0.65 | 0.691 | 0.682 | 0.733 | 0.491 | 0.593 | 0.539 | 0.597 | 0.543 | 0.927 | 0.882 | 0.824 | 0.829 | 0.858
15 | NCI-H838 | 1.11 | 1.19 | 1.17 | 1.22 | 1.11 | 0.236 | 0.263 | 0.282 | 0.295 | 0.252 | 0.711 | 0.742 | 0.706 | 0.716 | 0.677 | 0.788 | 0.817 | 0.818 | 0.816 | 0.785
16 | NCI-H596 | 1.02 | 0.987 | 0.871 | 0.768 | 0.696 | 0.985 | 0.982 | 0.963 | 0.838 | 0.754 | 0.746 | 0.606 | 0.569 | 0.517 | 0.694 | 0.989 | 0.916 | 1.11 | 1.14 | 0.984
